Measurements taken from US20260167673A1, “NOVEL POLYPEPTIDE, POLYPEPTIDE DERIVATIVE AND USE THEREOF” (NANJING ANJI BIOTECHNOLOGY CO., LTD., priority 2023, published 2026).
Marks after values point to notes of the source that are not given here. Where no end group is shown, it is not given here.

How the values were obtained:
[1] = test system: human colon cancer cells SW480; assay: CCK8 proliferation inhibition, SW480; assay type: cell-based; settings: SW480, 50 μM, 48 h
Protocol: (§1) Incubation was continued for 4 h in a cell incubator, an absorbance was measured at 450 nm, and a proliferation inhibition was calculated. Data was presented as mean±SD, and GraphPad Prism 5.0 statistical software was used. A t-test was used for comparison between two groups, while One-way Anova (Dunnett) was used for comparison among a plurality of groups.

[2] = test system: human uterine epidermal cancer cells MS751; assay: CCK8 proliferation inhibition, MS751; assay type: cell-based; settings: MS751, 50 μM, 48 h
Protocol: as §1

[3] = test system: human non-small cell lung cancer cells A549; assay: CCK8 proliferation inhibition, A549; assay type: cell-based; settings: A549, 50 μM, 48 h
Protocol: as §1

[4] = test system: human diffuse large B-cell lymphoma (DLBCL) cells WSU-DLCL2; assay: CCK8 proliferation inhibition, WSU-DLCL2; assay type: cell-based; settings: WSU-DLCL2, 50 μM, 48 h
Protocol: as §1

[5] = test system: human endometrial cancer cells RL-952; assay: CCK8 proliferation inhibition, RL-952; assay type: cell-based; settings: RL-952, 50 μM, 48 h
Protocol: as §1

[6] = test system: human pancreatic cancer cells ASPC-1; assay: CCK8 proliferation inhibition, ASPC-1; assay type: cell-based; settings: ASPC-1, 50 μM, 48 h
Protocol: as §1

[7] = test system: human cervical cancer epithelial cells CaSki; assay: CCK8 proliferation inhibition, CaSki; assay type: cell-based; settings: 50 μM, 48 h
Protocol: as §1

[8] = test system: human oral epidermoid carcinoma cells KB; assay: CCK8 proliferation inhibition, KB; assay type: cell-based; settings: 50 μM, 48 h
Protocol: as §1

[9] = test system: human acute promyelocytic leukemia cells NB4; assay: CCK8 proliferation inhibition, NB4; assay type: cell-based; settings: NB4, 50 μM, 48 h
Protocol: as §1

[10] = test system: human neuroblastoma cells SH-SY5Y; assay: CCK8 proliferation inhibition, SH-SY5Y; assay type: cell-based; settings: 50 μM, 48 h
Protocol: as §1

[11] = test system: human liver cancer cells HCCLM3; assay: CCK8 proliferation inhibition, HCCLM3; assay type: cell-based; settings: HCCLM3, 50 μM, 48 h
Protocol: as §1

[12] = test system: human osteosarcoma cells MG63; assay: CCK8 proliferation inhibition, MG63; assay type: cell-based; settings: MG63, 50 μM, 48 h
Protocol: as §1

[13] = test system: subcutaneous transplanted tumor model of tongue squamous cell carcinoma cells CAL27; assay: CAL27 subcutaneous transplanted tumor model (Example 7); assay type: in vivo, BALB/c nude mice; settings: 2.7 μM/kg, FIG. 10
Protocol: (1) A large number of human tongue squamous cell carcinoma CAL27 cells were cultured and digested with a 0.25% trypsin solution. After digestion was terminated, a cell suspension was centrifuged at 1000 rpm for 5 min, and the cells were resuspended in a serum-free DMEM culture medium and counted. The cell concentration was adjusted to 5×10^7 cells/mL.
(2) BALB/c nude mice (4-6 week old, female, weighing 14-16 g, adaptively fed in an SPF animal feeding room for 1 week) were inoculated with 100 μL of cell suspensions of corresponding groups under the left axilla, with an injection volume of 5×10^6 cells/mouse;
(3) After inoculation, the tumor growth at the inoculation sites of the nude mice was closely observed. On the 7th day after inoculation, white nodules appeared at the inoculation sites and could move subcutaneously upon touch. As the tumor tissues grew, hard tumor blocks gradually formed at the inoculation sites, and the average volume of the tumor tissues reached 80 mm^3 in about 14 days. The BALB/c nude mice were randomly divided into 3 groups (a normal saline group served as a blank control, and the dose of the micropeptide HMMW and the novel polypeptide HMMW15-51 was 2.7 μM/kg), with 10 mice in the blank group and 6 mice in each other group. […]
(4) The volume of the transplanted tumor was measured and recorded every three days. […]

[14] = test system: human liver cancer Hep3B cells; assay: Transwell metastasis inhibition, Hep3B; assay type: cell-based; settings: 50 μmol/L, 48 h
Protocol: Melanoma, cervical cancer, ovarian cancer, liver cancer, and lung cancer cells were seeded into transwell chambers, with 100 μL per well. Different doses of the HMMW micropeptide and the novel polypeptide HMMW15-51 were added to each chamber as a treatment group, while no drug was added to a blank group. Then, 0.6 mL of a complete culture medium containing 10% FBS was added to the lower chambers of the transwell to stimulate cell metastasis, and the cells were cultured at 5% CO2 and 37° C. for 48 h. The culture solution was discarded from the wells. The cells were fixed with methanol at room temperature for 30 min, stained with 0.1% crystal violet at room temperature for 10 min, and rinsed with clean water. The upper layer nonmetastatic cells were wiped off with a cotton swab. The cells were observed under a microscope, and four fields of view were selected to take photos and count the cells. A metastasis inhibition (MI) was calculated according to a formula: […]
where Ntest represents the number of cell metastases in the treatment group, and Ncontrol represents the number of cell metastases in the blank control group.
Data was presented as mean±SD, and GraphPad Prism 5.0 statistical software was used.

[15] = test system: human liver cancer cells HepG2; assay: CCK8 proliferation inhibition, HepG2; assay type: cell-based; settings: HepG2, 50 μM, 48 h
Protocol: as §1

[16] = test system: human giant cell lung cancer cells 95-D; assay: CCK8 proliferation inhibition, 95-D; assay type: cell-based; settings: 50 μM, 48 h
Protocol: as §1

[17] = test system: human bladder transitional cell carcinoma cells T24; assay: CCK8 proliferation inhibition, T24; assay type: cell-based; settings: T24, 50 μM, 48 h
Protocol: as §1

[18] = test system: human gastric cancer cells MGC-803; assay: CCK8 proliferation inhibition, MGC-803; assay type: cell-based; settings: MGC-803, 50 μM, 48 h
Protocol: as §1

Sequence: MERAGVPGFSPRRSSVEAKMQSTSCSVRKSSTVTAWPAVVLLLSWGQRRGG [HMMW]
- Inhibition (%) [1]: 49.114 ± 2.626 %
- OD [1]: 0.479 ± 0.025
- Inhibition (%) [2]: 49.268 ± 2.531 %
- OD [2]: 0.474 ± 0.024
- Inhibition (%) [3]: 52.950 ± 2.023 %
- OD [3]: 0.508 ± 0.022
- Inhibition (%) [4]: 44.365 ± 2.462 %
- OD [4]: 0.731 ± 0.032
- Inhibition (%) [5]: 50.988 ± 3.897 %
- OD [5]: 0.422 ± 0.034
- Inhibition (%) [6]: 51.448 ± 4.377 %
- OD [6]: 0.497 ± 0.045
- Inhibition (%) [7]: 53.329 ± 3.884 %
- OD [7]: 0.458 ± 0.038
- Inhibition (%) [8]: 53.399 ± 3.971 %
- OD [8]: 0.471 ± 0.040
- Inhibition (%) [9]: 47.692 ± 4.919 %
- OD [9]: 0.740 ± 0.070
- Inhibition (%) [10]: 50.542 ± 4.982 %
- OD [10]: 0.486 ± 0.049
- Inhibition (%) [11]: 53.926 ± 7.634 %
- OD [11]: 0.460 ± 0.076
- Inhibition (%) [12]: 52.544 ± 2.562 %
- OD [12]: 0.435 ± 0.024
- in vivo tumorigenicity of CAL27 cells compared with normal saline control [13]: significantly inhibit
- Inhibition (%) ([14]; Hep3B metastasis): 88.13*** %
- Number of cell metastases ([14]; Hep3B): 70 ± 75.82
- Inhibition (%) [15]: 52.579 ± 2.504 %
- OD [15]: 0.509 ± 0.027
- Inhibition (%) [16]: 59.757 ± 5.365 %
- OD [16]: 0.442 ± 0.059
- Inhibition (%) [17]: 51.562 ± 4.780 %
- OD [17]: 0.460 ± 0.045
- Inhibition (%) [18]: 41.094 ± 3.077 %
- OD [18]: 0.675 ± 0.035
